Results: publication PMC2914574 (Journal of neurochemistry, 2010)
Like-named read-outs stand apart in the source and are kept apart here. Marks after values point to notes of the source that are not given here.

What was measured:
wild-type hDAT = wild-type hDAT (Homo sapiens, UniProt Q01959); test: displacement of intact-cell [3H]CFT binding, wild-type hDAT; settings: for fold increase in binding affinity over monovalent DA: relative to dopamine; for Ki: inhibition of [3H]CFT binding, intact HEK-hDAT cells, 21°C, 15 min
wild-type hDAT, sequence (Q01959 whole entry): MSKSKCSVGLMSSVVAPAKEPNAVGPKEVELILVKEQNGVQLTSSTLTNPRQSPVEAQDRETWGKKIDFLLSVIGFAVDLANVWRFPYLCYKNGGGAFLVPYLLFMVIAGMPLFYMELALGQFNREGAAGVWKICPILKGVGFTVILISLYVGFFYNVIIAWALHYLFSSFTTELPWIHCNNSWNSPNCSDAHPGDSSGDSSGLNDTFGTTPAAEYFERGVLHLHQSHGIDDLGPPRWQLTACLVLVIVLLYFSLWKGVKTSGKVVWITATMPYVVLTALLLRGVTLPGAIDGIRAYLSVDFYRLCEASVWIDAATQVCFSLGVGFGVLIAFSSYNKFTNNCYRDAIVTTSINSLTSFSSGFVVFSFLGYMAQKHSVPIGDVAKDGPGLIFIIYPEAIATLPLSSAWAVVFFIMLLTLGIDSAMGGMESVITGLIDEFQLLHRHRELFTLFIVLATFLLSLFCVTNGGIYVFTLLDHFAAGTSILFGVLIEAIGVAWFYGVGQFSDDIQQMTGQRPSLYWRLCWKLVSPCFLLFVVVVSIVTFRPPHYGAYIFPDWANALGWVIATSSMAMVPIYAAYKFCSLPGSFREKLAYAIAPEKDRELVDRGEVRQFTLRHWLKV

WT hDAT [1] = target: T1, WT hDAT (Homo sapiens, UniProt Q01959); test: inhibition of [3H]DA uptake in intact HEK-hDAT cells; assay type: cell-based; settings: for Uptake Kapp, WT: inhibition of [3H]DA uptake, intact HEK-hDAT cells, 5 min; for Kapp / Ki ratio: uptake Kapp over binding Ki at WT hDAT
T1 sequence (Q01959 whole entry): as above

hDAT W84L mutant = target: T2, hDAT W84L mutant (Homo sapiens, UniProt Q01959, W84L); test: displacement of intact-cell [3H]CFT binding, W84L mutant hDAT
T2 sequence (Q01959 1-620 W84L): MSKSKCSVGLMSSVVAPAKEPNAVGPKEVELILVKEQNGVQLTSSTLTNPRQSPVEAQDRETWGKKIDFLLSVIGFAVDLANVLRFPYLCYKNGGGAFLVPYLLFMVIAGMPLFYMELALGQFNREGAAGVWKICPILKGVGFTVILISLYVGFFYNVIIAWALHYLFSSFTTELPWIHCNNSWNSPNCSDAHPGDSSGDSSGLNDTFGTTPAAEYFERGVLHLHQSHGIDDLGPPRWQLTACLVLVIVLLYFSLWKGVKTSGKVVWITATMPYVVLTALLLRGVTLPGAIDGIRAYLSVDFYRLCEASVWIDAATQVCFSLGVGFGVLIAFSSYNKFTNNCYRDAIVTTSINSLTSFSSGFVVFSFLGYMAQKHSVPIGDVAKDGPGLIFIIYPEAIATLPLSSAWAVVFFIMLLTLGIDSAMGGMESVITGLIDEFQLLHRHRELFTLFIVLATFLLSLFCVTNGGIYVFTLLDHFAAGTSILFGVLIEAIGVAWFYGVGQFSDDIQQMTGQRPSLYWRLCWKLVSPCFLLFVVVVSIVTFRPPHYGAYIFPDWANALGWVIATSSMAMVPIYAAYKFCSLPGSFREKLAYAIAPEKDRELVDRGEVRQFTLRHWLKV

hDAT D313N mutant = hDAT D313N mutant (Homo sapiens, UniProt Q01959, D313N); test: displacement of intact-cell [3H]CFT binding, D313N mutant hDAT
hDAT D313N mutant, sequence (Q01959 whole entry D313N): as the sequence (Q01959 whole entry) above, with D313N counted along it

WT hDAT [2] = target: T1, WT hDAT; settings: inhibition of [3H]DA uptake; ref Chen et al. (2004); cited from earlier work

Oc1ccc(CCNCCCNCCc2ccc(O)c(O)c2)cc1O [Compound D-307]
fold increase in binding affinity over monovalent DA (wild-type hDAT; [3H]CFT binding, WT hDAT): 5 fold | Ki (wild-type hDAT; read-out: hDAT Binding Ki, WT): 875 ± 71.4 nM | Uptake Kapp, WT (WT hDAT [1]): 1691 ± 197 nM

Oc1ccc(CCNCCCCCCCCNCCc2ccc(O)c(O)c2)cc1O [Compound D-362]
fold increase in binding affinity over monovalent DA (wild-type hDAT; [3H]CFT binding, WT hDAT): 82 fold | Ki (wild-type hDAT; read-out: hDAT Binding Ki, WT): 51.9 nM | Uptake Kapp, WT (WT hDAT [1]): 105.7 ± 2.98 nM

Oc1ccc(CCNCCCCCCNCCc2ccccc2)cc1O [dopexamine, reference compound]
Ki (wild-type hDAT; hDAT Binding Ki, WT): 96.9 ± 13.7 nM | Ki (hDAT W84L mutant): 147 ± 5.09 nM | Ki (hDAT D313N mutant): 192 ± 20.6 nM | Uptake Kapp, WT (WT hDAT [1]): 187.5 ± 19.2 nM

COC(=O)[C@H]1[C@@H](OC(=O)c2ccccc2)C[C@@H]2CC[C@H]1N2C [cocaine]
Uptake Kapp, WT (WT hDAT [2]): 246.0 ± 25.0 ^b nM

C[C@H](N)Cc1ccccc1 [(d)-amphetamine, reference compound]
Uptake Kapp, WT (WT hDAT [1]): 163.5 ± 4.57 nM

CC(CCc1ccc(O)cc1)NCCc1ccc(O)c(O)c1 (stereo not drawn) [(dl)-dobutamine, dobutamine, reference compound]
fold increase in binding affinity over monovalent DA (wild-type hDAT; [3H]CFT binding, WT hDAT): 21 fold | Ki (wild-type hDAT; hDAT Binding Ki, WT): 196 ± 14.3 nM | Ki (hDAT W84L mutant): 237 ± 23.9 nM | Ki (hDAT D313N mutant): 257 ± 26.5 nM | Uptake Kapp, WT (WT hDAT [1]): 329.4 ± 16.5 nM

CN[C@@H](C)Cc1ccccc1 [(d)-methamphetamine, reference compound]
Ki (wild-type hDAT; read-out: hDAT Binding Ki, WT): 341 ± 42.7 nM | Uptake Kapp, WT (WT hDAT [1]): 141.7 ± 18.8 nM

CC(Cc1ccccc1)NCCc1ccc(O)c(O)c1 [Compound D-279, dopamphetamine]
fold increase in binding affinity compared to (d)-amphetamine (wild-type hDAT; [3H]CFT binding, WT hDAT): 2 fold | Ki (wild-type hDAT; read-out: hDAT Binding Ki, WT): 342 ± 5.38 nM | Uptake Kapp, WT (WT hDAT [1]): 605.3 ± 46.7 nM

Oc1ccc(CCNCCCCCNCCc2ccc(O)c(O)c2)cc1O [Compound D-347]
fold increase in binding affinity over monovalent DA (wild-type hDAT; [3H]CFT binding, WT hDAT): 51 fold | Ki (wild-type hDAT; read-out: hDAT Binding Ki, WT): 83.3 ± 8.74 nM | Uptake Kapp, WT (WT hDAT [1]): 171.5 ± 1.60 nM

CC(NC(C)(C)C)C(=O)c1cccc(Cl)c1 (stereo not shown) [bupropion, reference compound]
Uptake Kapp, WT (WT hDAT [1]): 576.5 ± 29.1 nM

CC(Cc1ccccc1)NCCCCCCNCCc1ccccc1 [Compound D-370]
Ki (wild-type hDAT; read-out: hDAT Binding Ki, WT): 97.8 ± 10 nM | Uptake Kapp, WT (WT hDAT [1]): 204.7 ± 9.75 nM

CN1[C@@H]2CC[C@H]1C[C@@H](OC(c1ccccc1)c1ccccc1)C2 [benztropine, reference compound]
Uptake Kapp, WT (WT hDAT [1]): 375.5 ± 6.35 nM

hydroxydopentamine [Compound D-310]
Ki (wild-type hDAT; read-out: hDAT Binding Ki, WT): 91.4 ± 12.5 nM | Uptake Kapp, WT (WT hDAT [1]): 155.3 ± 18.6 nM

CC(Cc1ccccc1)NCCCNCCc1ccc(O)c(O)c1 [Compound D-309]
fold increase in binding affinity over monovalent DA (wild-type hDAT; [3H]CFT binding, WT hDAT): 13 fold | Ki (wild-type hDAT; read-out: hDAT Binding Ki, WT): 322 ± 15.3 nM | Uptake Kapp, WT (WT hDAT [1]): 740.8 ± 30.1 nM

COC(=O)[C@H]1[C@@H](c2ccc(F)cc2)C[C@@H]2CC[C@H]1N2C [β-CFT, 2β-carbomethoxy-3β-(4-fluorophenyl)-tropane]
Uptake Kapp, WT (WT hDAT [2]): 30.0 ± 4.0 ^b nM

CC(CCc1ccc(O)c(O)c1)NCCc1ccc(O)c(O)c1 [Compound D-278, hydroxydobutamine]
fold increase in affinity compared to dobutamine (wild-type hDAT; [3H]CFT binding, WT hDAT): 4 fold | fold increase in binding affinity over monovalent DA (wild-type hDAT; [3H]CFT binding, WT hDAT): 74 fold | Ki (wild-type hDAT; read-out: hDAT Binding Ki, WT): 58 ± 2.9 nM | Ki (wild-type hDAT; read-out: hDAT Binding Ki, WT, listed as hydroxydobutamine): ~58 nM | Uptake Kapp, WT (WT hDAT [1]): 187.5 ± 30.2 nM

NCCc1ccccc1 [β-phenethylamine, reference compound]
Ki (wild-type hDAT; read-out: hDAT Binding Ki, WT): 3261 ± 21.5 nM | Uptake Kapp, WT (WT hDAT [1]): 1103 ± 206 nM

Oc1ccc(CCNCCCCCCNCCc2ccc(O)c(O)c2)cc1O [Compound D-361]
fold increase in binding affinity over monovalent DA (wild-type hDAT; [3H]CFT binding, WT hDAT): 61 fold | Ki (wild-type hDAT; read-out: hDAT Binding Ki, WT): 69.7 ± 9.54 nM | Uptake Kapp, WT (WT hDAT [1]): 134.9 ± 17.5 nM

CCCNC(C)Cc1ccccc1 (stereo not drawn) [(dl)-propylamphetamine, N-propylamphetamine, reference compound]
Ki (wild-type hDAT; read-out: hDAT Binding Ki, WT): 988 ± 67.6 nM | Uptake Kapp, WT (WT hDAT [1]): 2497 ± 138 nM | Kapp / Ki ratio (WT hDAT [1]): 1.8–2.5

CCCCCCNCCc1ccc(O)c(O)c1 [Compound D-363, N-hexyldopamine]
fold weaker binding than the bivalent D-361 (wild-type hDAT; [3H]CFT binding, WT hDAT): 25 fold | fold increase in binding affinity over monovalent DA (wild-type hDAT; [3H]CFT binding, WT hDAT): 2.5 fold | Ki (wild-type hDAT; read-out: hDAT Binding Ki, WT): 1740 ± 191 nM | fold loss of activity as inhibitor of [3H]DA uptake relative to dopamine (WT hDAT [1]; WT hDAT): > 7 fold | Uptake Kapp, WT (WT hDAT [1]): 3075 ± 223 nM | Kapp / Ki ratio (WT hDAT [1]): 1.8–2.5

CC(Cc1ccccc1)NCCCCCCNCCc1ccc(O)c(O)c1 [Compound D-371]
fold increase in binding affinity compared to (d)-amphetamine (wild-type hDAT; [3H]CFT binding, WT hDAT): 6 fold | fold increase in binding affinity over monovalent DA (wild-type hDAT; [3H]CFT binding, WT hDAT): 42 fold | Ki (wild-type hDAT; read-out: hDAT Binding Ki, WT): 101 ± 13.4 nM | Uptake Kapp, WT (WT hDAT [1]): 244.5 ± 21.5 nM
